Experimental data reported in patent US4127661A, “Piperazine alkanols” (Serdex - Societe d'Etudes, de Recherches, de Diffusion et …, priority 1976, dated 1978).
Where a name gives a salt, the structure may show the parent alone.

Assays:
femoral artery [1] = assay: Vasodilator action in anesthetized dogs (femoral rate of flow, local peripheral resistance), 5 mg/kg i.v.; format: in vivo; conditions: 5 mg/kg intravenously
Procedure: (§1) The tests were conducted with pentobarbital anesthetized dogs (35 mg/kg/i.v.) under artificial respiration with pentobarbital infusion (5 mg/kg/hr).
(§2) The carotid arterial pressure was recorded by means of an electromagnetic capsule connected to the carotid artery. From said determination were calculated the mean blood pressure, the systolic pressure, the diastolic pressure and the pulse pressure.
(§3) The femoral rate of flow was recorded by means of an electromagnetic sensor placed around the femoral artery. Local peripheral resistance was calculated from said parameters.
The compounds of the formula (I) were administered intravenously at a dosage of 5 mg/kg. Two tests were conducted with each compound.

femoral artery [2] = assay: Peripheral action of the compounds of Examples 1, 2 and 4 (femoral rate of flow, local peripheral resistance, blood pressure), 2.5 mg/kg; format: in vivo, dogs; conditions: for Femoral rate of flow: increase; for Local peripheral resistance: at 30mn, decrease
Procedure: as §1, §2, §3

Acute toxicity, oral = conditions: rat, in vivo, single administration, fasted male Sprague Dawley rats, after 14 days, p = 0.05, Litchfield and Wilcoxon
Procedure: Acute toxicity was studied orally in male Sprague Dawley rats kept fasting 24 hours prior to the test, distributed in homogeneous groups of 10 animals each.
The animals were given a single administration of the test materials and were kept under observation during 14 days.
The LD50 were determined after 14 days at a probability threshold of p = 0.05, according to the method of Litchfield and Wilcoxon.

| SMILES | assessment among the compounds tested for peripheral vasodilator activity (femoral artery [1]) | Femoral rate of flow (femoral artery [2]; 1 hour) | Local peripheral resistance (femoral artery [2]) | LD50 at 336 h (Acute toxicity, oral) | Femoral rate of flow (femoral artery [2]; 30mn) | Femoral rate of flow (femoral artery [2]; on injection (injec.)) |
| --- | --- | --- | --- | --- | --- | --- |
| CC(=O)C(c1ccccc1)N1CCN(CCOc2ccccc2)CC1 (stereo not shown) [Example 1, 1-[N-(2-phenoxy-1-ethyl)piperazino]-1-phenylacetone] | particularly valuable | > 25% | 20% | 800 mg/kg | – | – |
| CC(O)C(c1ccccc1)N1CCN(CCOc2ccccc2)CC1 (stereo not shown) [Example 2, 1-[N-(2-phenoxy-1-ethyl)piperazino]-1-phenyl-2-propanol] | particularly valuable | – | 15% | 250 mg/kg | > 15% | > 100% |
| CCC(O)C(c1ccccc1)N1CCN(CCOc2ccccc2C)CC1 (stereo not shown) [Example 4, 1-(N-[2-(2-methyl-1-phenoxy)-1-ethyl]piperazino)-1-phenyl-2-butanol dihydrochloride] | particularly valuable | > 30% | 30% | 700 mg/kg | – | – |
